Measurements taken from patent publication US8309558B2, “Compounds for the treatment of hepatitis C” (Bristol-Myers Squibb Company, priority 2008, dated 2012).
pEC50, pIC50: −log10 of the molar value. Like-named read-outs stand apart in the source and are kept apart here.

Assays:
[1] = tested on: HCV; settings: cited from earlier work
[2] = molecular target: T1, HCV NS5B RdRp genotype 1b (Hepatitis C virus genotype 1b, UniProt Q9WMX2); assay: Standard HCV NS5B RdRp enzyme assay; type: biochemical; settings: HCV NS5B RdRp genotype 1b, read-out: IC50
T1 construct: The protein was expressed with an 18 amino acid C-terminal truncation to enhance the solubility; made in house; host or cells: E. coli BL21(DE3), pET21a vector
In short: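 C-terminally truncated (18 aa) genotype 1b NS5B from E. coli, 28 nM, with 6 nM polyA template, 180 nM biotinylated oligo-dT12 primer and 3H-UTP (0.29 μM total UTP). Hepes pH 7.5 buffer with 2% DMSO; 60 min at 30° C. EDTA stop, SPA read-out; IC50 from seven concentrations by four-parameter fit.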

[3] = tested on: HUH-7 cells, constitutively expressing the HCV replicon; assay: HCV Replicon Luciferase Reporter Assay (384-well plates); type: cell-based; settings: Hepatitis C virus, untitled table after Table 1b, *EC50 determined using 384 well plate method
Experimental: The HCV replicon luciferase assay was developed to monitor the inhibitory effects of compounds described in the disclosure on HCV viral replication. Utilization of a replicon luciferase reporter assay was first described by Krieger et al (Krieger N, Lohmann V, and Bartenschlager R, J. Virol. 75(10):4614-4624 (2001)). HUH-7 cells, constitutively expressing the HCV replicon, were grown in Dulbecco's Modified Eagle Media (DMEM) (Gibco-BRL) containing 10% Fetal calf serum (FCS) (Sigma) and 1 mg/ml G418 (Gibco-BRL). Compounds were serially diluted 3 folds in DMSO for a twenty-point titration and subsequently transferred to sterile 384-well tissue-culture treated plates (Corning cat #3571). The plates were then seeded with 50 μl of cells at a density of 3.0×10^3 cells/well in DMEM containing 4% FCS (final DMSO concentration at 0.5%). After 3 days incubation at 37° C., cells were analyzed for Renilla Luciferase activity using the EnduRen as substrate (Promega cat #E6485). The EnduRen substrate was diluted in DMEM and then added to the plates to a final concentration of 7.5 μM. The plates were incubated for 2 hrs at 37° C. and then read immediately for 30 seconds with Viewlux Imager (PerkinElmer) using a luminescence program. To assess cytotoxicity of compounds, CC50 values were generated by multiplexing the EnduRen-containing plates with Cell Titer-Blue (Promega, cat #G8082). 3 μl of Cell-Titer Blue was added to each well and incubated for 8 hrs at 37° C. The fluorescence signal from each well was read, with an excitation wavelength at 525/10 nm and an emission wavelength of 598/10 nm, using the Viewlux Imager.

[4] = tested on: HCV replicon cells; assay: HCV replicon FRET / luciferase assay (96-well plates); type: cell-based; settings: Hepatitis C virus, HCV replicon, read-out: EC50
In short: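 Replicon cells (with or without Renilla luciferase reporter) incubated with titrated compounds at 37 °C; Alamar blue read for cytotoxicity first. NS3 protease activity read kinetically with 20 μM EDANS/DABCYL FRET peptide in lysis reagent plus 150 mM NaCl (ex 340/em 490), or by Dual-Glo luciferase. EC50 = 50% signal reduction after protease-inhibitor background subtraction.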

T1 sequence (Q9WMX2 2420-2992): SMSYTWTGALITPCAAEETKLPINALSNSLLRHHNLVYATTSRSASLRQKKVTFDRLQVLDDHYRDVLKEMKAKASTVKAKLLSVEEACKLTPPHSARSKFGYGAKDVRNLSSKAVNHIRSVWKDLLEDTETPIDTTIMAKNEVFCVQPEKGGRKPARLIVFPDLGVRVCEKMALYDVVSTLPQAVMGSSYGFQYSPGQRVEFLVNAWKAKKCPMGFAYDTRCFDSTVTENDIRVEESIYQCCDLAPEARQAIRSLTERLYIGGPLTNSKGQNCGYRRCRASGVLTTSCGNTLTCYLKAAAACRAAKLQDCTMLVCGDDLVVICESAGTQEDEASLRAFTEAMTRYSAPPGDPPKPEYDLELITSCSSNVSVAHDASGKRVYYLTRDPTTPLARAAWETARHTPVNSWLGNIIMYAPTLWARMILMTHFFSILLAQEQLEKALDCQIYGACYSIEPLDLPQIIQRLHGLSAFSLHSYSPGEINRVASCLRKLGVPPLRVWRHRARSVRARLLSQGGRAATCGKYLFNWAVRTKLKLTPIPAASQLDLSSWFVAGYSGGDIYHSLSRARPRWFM

CNC(=O)c1c(-c2ccc(F)cc2)oc2cc(N(CCO)S(C)(=O)=O)c(C3CC3)cc12 [HCV-796]
hepatic toxicity ([1]; patients, extended dosing of the combination regimens): hepatic toxicity observed | HCV RNA levels in patients ([1]; single agent or combined with interferon and ribavirin): reduce HCV RNA levels in patients

CNC(=O)c1c(-c2ccc(F)cc2)oc2ccc(-c3cc(C(=O)NC4(c5nc(C)no5)CC4)ccc3C)cc12 [drawing 602]
pIC50 ([2]; untitled table after Table 1b): 8.14 | pEC50 [3]: 9.09

CNC(=O)c1c(-c2ccc(F)cc2)oc2ccc(-c3cc(C(=O)NC4(c5nc(C)no5)CC4)c(OC)cc3C)cc12 [drawing 598]
pIC50 ([2]; untitled table after Table 1b): 7.70 | pEC50 [3]: 8.80

CNC(=O)c1c(-c2ccc(F)cc2)oc2ccc(-c3cc(C(=O)NC4(c5ccccn5)CC4)cc(F)c3C)cc12 [drawing 600]
pIC50 ([2]; untitled table after Table 1b): 8.00 | pEC50 [3]: 9.37

CNC(=O)c1c(-c2ccc(F)cc2)oc2ccc(-c3cc(C(=O)NC4(c5ncccn5)CC4)ccc3C)cc12 [drawing 599]
pIC50 ([2]; untitled table after Table 1b): > 7.70 | pEC50 [3]: 9.52

CNC(=O)c1c(-c2ccc(F)cc2)oc2ccc(-c3cc(C(=O)NC4(c5ncccn5)CC4)ccc3C)c(F)c12 [drawing 623]
pEC50 [3]: 8.25

CNC(=O)c1c(-c2ccc(F)cc2)oc2ccc(-c3cc(C(=O)NC4(c5ccncc5)CC4)ccc3C)cc12 [drawing 603]
pIC50 ([2]; untitled table after Table 1b): 8.40 | pEC50 [3]: 9.08

CNC(=O)c1c(-c2ccc(F)cc2)oc2ccc(-c3cc(C(=O)NC4(c5ccccc5)CC4)ccc3C)cc12 [drawing 601]
pIC50 ([2]; untitled table after Table 1b): 7.70 | pEC50 [3]: 9.10

CNC(=O)c1c(-c2ccc(F)cc2)oc2ccc(-c3cccc(C(=O)N[C@H](CO)C(=O)OC)c3)cc12
pEC50 ([4]; Table 1a): 5.00 to 6.00 | pIC50 ([2]; Table 1a): 6.00 to 6.60

CNC(=O)c1c(-c2ccc(F)cc2)oc2ccc(-c3cccc(C(=O)N4CCCC(CO)C4)c3)cc12 (centres unmarked)
pEC50 ([4]; Table 1a): 5.00 to 6.00 | pIC50 ([2]; Table 1a): 5.00 to 6.00

C=CCOC(=O)[C@H](C)NC(=O)c1cccc(-c2ccc3oc(-c4ccc(F)cc4)c(C(=O)NC)c3c2)c1
pEC50 ([4]; Table 1a): < 5.00 | pIC50 ([2]; Table 1a): > 6.60

CNC(=O)c1c(-c2ccc(F)cc2)oc2ccc(-c3cccc(C(=O)N[C@@H](CO)CC(C)C)c3)cc12
pEC50 ([4]; Table 1a): 5.00 to 6.00 | pIC50 ([2]; Table 1a): 5.00 to 6.00

CNC(=O)c1c(-c2ccc(F)cc2)oc2ccc(-c3cccc(C(=O)NC(CC(C)C)C(N)=O)c3)cc12 (centres unmarked)
pEC50 ([4]; Table 1a): 6.00 to 6.60 | pIC50 ([2]; Table 1a): 6.00 to 6.60

CNC(=O)c1c(-c2ccc(F)cc2)oc2ccc(-c3cc(C(=O)NCC(C)C)ccc3OC(F)F)cc12
pEC50 ([4]; Table 1b): > 6.60 | pIC50 ([2]; Table 1b): > 6.60

CNC(=O)c1c(-c2ccc(F)cc2)oc2ccc(-c3cc(OCCOC)cc(C(=O)NCC(C)C)c3)cc12
pEC50 ([4]; Table 1b): 5.00 to 6.00 | pIC50 ([2]; Table 1b): < 6.30

CNC(=O)c1c(-c2ccc(F)cc2)oc2ccc(-c3ccc(-c4cccc(-c5ccccc5)c4)c(C(=O)NCC(C)C)c3)cc12
pEC50 ([4]; Table 1b): 6.00 to 6.60 | pIC50 ([2]; Table 1b): < 5.00

CNC(=O)c1c(-c2ccc(F)cc2)oc2ccc(-c3cc(C(=O)NCC(C)C)ccc3OCCc3c(C)n[nH]c3C)cc12
pEC50 ([4]; Table 1b): > 6.60 | pIC50 ([2]; Table 1b): > 6.60

CNC(=O)c1c(-c2ccc(F)cc2)oc2ccc(-c3cccc(C(=O)NCCN(C)C)c3)cc12
pEC50 ([4]; Table 1a): 5.00 to 6.00 | pIC50 ([2]; Table 1a): 5.00 to 6.00

CNC(=O)c1c(-c2ccc(F)cc2)oc2ccc(-c3cc(C(=O)NC4(c5ccccc5)CC4)ccc3OC(F)(F)F)cc12
pEC50 ([4]; Table 1b): > 6.60 | pIC50 ([2]; Table 1b): 6.00 to 6.60

CNC(=O)c1c(-c2ccc(F)cc2)oc2ccc(-c3cccc(C(=O)N[C@H]4CCC[C@H]4C(N)=O)c3)cc12
pEC50 ([4]; Table 1a): 6.00 to 6.60 | pIC50 ([2]; Table 1a): 6.00 to 6.60

CNC(=O)c1c(-c2ccc(F)cc2)oc2ccc(-c3cccc(C(=O)Nc4nccs4)c3)cc12
pEC50 ([4]; Table 1a): 6.00 to 6.60 | pIC50 ([2]; Table 1a): > 6.60

CNC(=O)c1c(-c2ccc(F)cc2)oc2ccc(-c3cc(C(=O)NC4(c5ccccn5)CC4)c(OCc4cnccn4)cc3C)cc12 [drawing 660]
pEC50 ([4]; 24 h, Table 1d (class symbols)): 6.60 to 9.00 | pIC50 ([2]; Table 1d (class symbols)): 6.60 to 9.00

CNC(=O)c1c(-c2ccc(F)cc2)oc2ccc(-c3cccc(C(=O)NCc4cccc(O)c4)c3)cc12
pEC50 ([4]; Table 1a): > 6.60 | pIC50 ([2]; Table 1a): 6.00 to 6.60

CNC(=O)c1c(-c2ccc(F)cc2)oc2ccc(-c3cc(C(=O)NC4(c5ccccc5)CC4)ccc3OCCN)cc12
pEC50 ([4]; Table 1b): > 6.60 | pIC50 ([2]; Table 1b): > 6.60

CNC(=O)c1c(-c2ccc(F)cc2)oc2ccc(-c3cc(Cl)cnc3F)cc12
pEC50 ([4]; Table 1a): 5.00 to 6.00 | pIC50 ([2]; Table 1a): < 5.00

CNC(=O)c1c(-c2ccc(F)cc2)oc2ccc(-c3cccc(C(=O)NC4(CO)CCCC4)c3)cc12
pEC50 ([4]; Table 1a): > 6.60 | pIC50 ([2]; Table 1a): > 6.60

CNC(=O)c1c(-c2ccc(F)cc2)oc2ccc(-c3cc(C(=O)NC4(c5ccccc5)CC4)ccc3OCC(N)=O)cc12
pEC50 ([4]; Table 1b): > 6.60 | pIC50 ([2]; Table 1b): > 6.60

CNC(=O)c1c(-c2ccc(F)cc2)oc2ccc(-c3cccc(C(=O)N[C@@H](C)c4cccc(OC)c4)c3)cc12
pEC50 ([4]; Table 1a): > 6.60 | pIC50 ([2]; Table 1a): > 6.60

CCCNC(=O)c1cccc(-c2ccc3oc(-c4ccc(F)cc4)c(C(=O)NC)c3c2)c1
pEC50 ([4]; Table 1a): > 6.60 | pIC50 ([2]; Table 1a): > 6.60

CNC(=O)c1c(-c2ccc(F)cc2)oc2ccc(-c3ccc(C(=O)NCC(=O)OC)cc3)cc12
pEC50 ([4]; Table 1a): 5.00 to 6.00 | pIC50 ([2]; Table 1a): < 5.00

CN1CN(C)c2c(-c3cccc(C(N)=O)c3)ccc3oc(-c4ccc(F)cc4)c(c23)C1=O [drawing 619]
pEC50 ([4]; untitled table after Table 1b, values without asterisk): 4.86 | pIC50 ([2]; untitled table after Table 1b): < 4.90

CNC(=O)c1c(-c2ccc(F)cc2)oc2ccc(-c3cccc(S(=O)(=O)NC4CC4)c3)cc12
pEC50 ([4]; Table 1a): < 5.00 | pIC50 ([2]; Table 1a): < 5.00

CNC(=O)c1c(-c2ccc(F)cc2)oc2ccc(-c3cccc(C(=O)NC(C)(C)C)c3)cc12
pEC50 ([4]; Table 1a): > 6.60 | pIC50 ([2]; Table 1a): > 6.60

CNC(=O)c1c(-c2ccc(F)cc2)oc2ccc(-c3cccc(C(=O)NC4CCC4)c3)cc12
pEC50 ([4]; Table 1a): > 6.60 | pIC50 ([2]; Table 1a): > 6.60

CNC(=O)c1c(-c2ccc(F)cc2)oc2ccc(-c3ccc(-c4ccc5cc[nH]c5c4)c(C(=O)NCC(C)C)c3)cc12
pEC50 ([4]; Table 1b): > 6.60 | pIC50 ([2]; Table 1b): 6.00 to 6.60

CNC(=O)c1c(-c2ccc(F)cc2)oc2ccc(-c3ccc(NC(=O)CCC(=O)O)cc3)cc12
pEC50 ([4]; Table 1a): < 5.00 | pIC50 ([2]; Table 1a): 5.00 to 6.00

CNC(=O)c1c(-c2ccc(F)cc2)oc2ccc(-c3cc(C(=O)NCC(C)C)ccc3OCCCn3cccc3)cc12
pEC50 ([4]; Table 1b): 6.00 to 6.60 | pIC50 ([2]; Table 1b): 5.00 to 6.00

CNC(=O)c1c(-c2ccc(F)cc2)oc2ccc(-c3cc(C(=O)NC4(c5ccccn5)CC4)cc(O)c3C)cc12
pEC50 ([4]; Table 1b): > 6.60 | pIC50 ([2]; Table 1b): > 6.60

CNC(=O)c1c(-c2ccc(F)cc2)oc2ccc(-c3ccc(C(F)(F)F)c(Cl)c3)cc12
pEC50 ([4]; Table 1a): < 5.91 | pIC50 ([2]; Table 1a): < 5.00
